Test results taken from US9340590B2 (priority 2011, dated 2016).
Like-named read-outs stand apart in the source and are kept apart here. Positions of bridges follow the written chain, without caps; N, C: chain ends. Non-standard residues stand in square brackets, D forms with d. Residues, ends and D or L forms follow the SMILES beside them. 2Nal = N[C@@H](Cc1ccc2ccccc2c1)C(=O)O; pGlu = O=C1CC[C@@H](C(=O)O)N1; Abu = CC[C@H](N)C(=O)O

Legend:
Experiment in all cases: cell-based
hNav1.5 = hNav1.5 (Homo sapiens, UniProt Q14524)
Chain of hNav1.5 (Q14524 whole entry, looked up): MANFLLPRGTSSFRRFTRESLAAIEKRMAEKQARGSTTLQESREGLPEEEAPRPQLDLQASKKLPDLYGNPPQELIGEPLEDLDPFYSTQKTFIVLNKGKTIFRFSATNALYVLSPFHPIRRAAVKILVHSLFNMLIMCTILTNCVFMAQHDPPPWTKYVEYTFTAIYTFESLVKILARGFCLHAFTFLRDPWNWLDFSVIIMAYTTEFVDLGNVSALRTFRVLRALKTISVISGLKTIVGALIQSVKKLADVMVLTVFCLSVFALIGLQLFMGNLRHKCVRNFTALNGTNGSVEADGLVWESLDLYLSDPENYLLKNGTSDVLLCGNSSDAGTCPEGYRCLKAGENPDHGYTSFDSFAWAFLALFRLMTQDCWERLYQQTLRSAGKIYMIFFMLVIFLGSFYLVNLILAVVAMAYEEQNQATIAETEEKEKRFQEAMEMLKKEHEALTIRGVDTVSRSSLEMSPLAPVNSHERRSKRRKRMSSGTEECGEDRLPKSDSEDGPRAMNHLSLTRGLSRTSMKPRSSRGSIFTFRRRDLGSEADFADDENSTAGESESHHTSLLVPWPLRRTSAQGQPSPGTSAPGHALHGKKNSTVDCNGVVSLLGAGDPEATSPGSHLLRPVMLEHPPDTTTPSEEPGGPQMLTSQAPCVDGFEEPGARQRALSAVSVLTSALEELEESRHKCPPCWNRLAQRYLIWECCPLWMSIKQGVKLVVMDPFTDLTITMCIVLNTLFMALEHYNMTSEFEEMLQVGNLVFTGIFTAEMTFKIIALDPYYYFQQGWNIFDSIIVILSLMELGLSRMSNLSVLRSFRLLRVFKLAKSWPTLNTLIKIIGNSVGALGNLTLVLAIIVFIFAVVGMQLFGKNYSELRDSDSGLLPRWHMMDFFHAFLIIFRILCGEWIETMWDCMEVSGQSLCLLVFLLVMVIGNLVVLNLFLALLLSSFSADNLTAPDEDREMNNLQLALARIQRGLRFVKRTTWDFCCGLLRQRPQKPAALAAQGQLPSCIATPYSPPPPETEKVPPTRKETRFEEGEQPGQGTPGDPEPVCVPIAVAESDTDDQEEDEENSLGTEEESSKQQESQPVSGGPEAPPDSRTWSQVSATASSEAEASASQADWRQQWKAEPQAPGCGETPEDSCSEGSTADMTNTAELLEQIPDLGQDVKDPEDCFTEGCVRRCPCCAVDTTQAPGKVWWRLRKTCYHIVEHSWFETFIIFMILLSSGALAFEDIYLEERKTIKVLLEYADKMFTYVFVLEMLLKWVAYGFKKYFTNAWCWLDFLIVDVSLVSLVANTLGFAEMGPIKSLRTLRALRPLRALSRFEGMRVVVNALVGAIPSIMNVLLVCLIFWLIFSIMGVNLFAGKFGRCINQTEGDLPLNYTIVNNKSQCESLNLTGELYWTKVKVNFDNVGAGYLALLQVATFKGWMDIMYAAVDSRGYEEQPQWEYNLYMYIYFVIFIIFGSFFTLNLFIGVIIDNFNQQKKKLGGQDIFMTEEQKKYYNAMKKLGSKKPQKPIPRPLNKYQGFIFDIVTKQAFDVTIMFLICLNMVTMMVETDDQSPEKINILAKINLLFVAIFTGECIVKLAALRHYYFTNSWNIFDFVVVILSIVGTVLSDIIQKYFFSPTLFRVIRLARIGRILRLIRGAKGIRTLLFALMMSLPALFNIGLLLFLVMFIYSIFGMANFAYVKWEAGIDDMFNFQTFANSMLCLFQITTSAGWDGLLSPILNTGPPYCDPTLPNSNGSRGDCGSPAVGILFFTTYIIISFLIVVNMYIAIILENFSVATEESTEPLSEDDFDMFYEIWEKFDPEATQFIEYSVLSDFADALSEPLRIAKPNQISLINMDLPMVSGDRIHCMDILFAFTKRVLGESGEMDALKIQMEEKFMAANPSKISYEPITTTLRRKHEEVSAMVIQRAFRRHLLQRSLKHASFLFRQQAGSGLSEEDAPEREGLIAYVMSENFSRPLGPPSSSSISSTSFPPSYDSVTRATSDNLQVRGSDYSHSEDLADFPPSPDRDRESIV

hNav1.3 = hNav1.3 (Homo sapiens, UniProt Q9NY46); conditions: IonWorks Quattro, read-out: IWQ Use Nav1.3
hNav1.7 = hNav1.7 (Homo sapiens, UniProt Q15858); format: cell-based; conditions: IonWorks Quattro, read-out: IWQ Use Nav1.7
Chain of hNav1.7 (Q15858 whole entry, looked up): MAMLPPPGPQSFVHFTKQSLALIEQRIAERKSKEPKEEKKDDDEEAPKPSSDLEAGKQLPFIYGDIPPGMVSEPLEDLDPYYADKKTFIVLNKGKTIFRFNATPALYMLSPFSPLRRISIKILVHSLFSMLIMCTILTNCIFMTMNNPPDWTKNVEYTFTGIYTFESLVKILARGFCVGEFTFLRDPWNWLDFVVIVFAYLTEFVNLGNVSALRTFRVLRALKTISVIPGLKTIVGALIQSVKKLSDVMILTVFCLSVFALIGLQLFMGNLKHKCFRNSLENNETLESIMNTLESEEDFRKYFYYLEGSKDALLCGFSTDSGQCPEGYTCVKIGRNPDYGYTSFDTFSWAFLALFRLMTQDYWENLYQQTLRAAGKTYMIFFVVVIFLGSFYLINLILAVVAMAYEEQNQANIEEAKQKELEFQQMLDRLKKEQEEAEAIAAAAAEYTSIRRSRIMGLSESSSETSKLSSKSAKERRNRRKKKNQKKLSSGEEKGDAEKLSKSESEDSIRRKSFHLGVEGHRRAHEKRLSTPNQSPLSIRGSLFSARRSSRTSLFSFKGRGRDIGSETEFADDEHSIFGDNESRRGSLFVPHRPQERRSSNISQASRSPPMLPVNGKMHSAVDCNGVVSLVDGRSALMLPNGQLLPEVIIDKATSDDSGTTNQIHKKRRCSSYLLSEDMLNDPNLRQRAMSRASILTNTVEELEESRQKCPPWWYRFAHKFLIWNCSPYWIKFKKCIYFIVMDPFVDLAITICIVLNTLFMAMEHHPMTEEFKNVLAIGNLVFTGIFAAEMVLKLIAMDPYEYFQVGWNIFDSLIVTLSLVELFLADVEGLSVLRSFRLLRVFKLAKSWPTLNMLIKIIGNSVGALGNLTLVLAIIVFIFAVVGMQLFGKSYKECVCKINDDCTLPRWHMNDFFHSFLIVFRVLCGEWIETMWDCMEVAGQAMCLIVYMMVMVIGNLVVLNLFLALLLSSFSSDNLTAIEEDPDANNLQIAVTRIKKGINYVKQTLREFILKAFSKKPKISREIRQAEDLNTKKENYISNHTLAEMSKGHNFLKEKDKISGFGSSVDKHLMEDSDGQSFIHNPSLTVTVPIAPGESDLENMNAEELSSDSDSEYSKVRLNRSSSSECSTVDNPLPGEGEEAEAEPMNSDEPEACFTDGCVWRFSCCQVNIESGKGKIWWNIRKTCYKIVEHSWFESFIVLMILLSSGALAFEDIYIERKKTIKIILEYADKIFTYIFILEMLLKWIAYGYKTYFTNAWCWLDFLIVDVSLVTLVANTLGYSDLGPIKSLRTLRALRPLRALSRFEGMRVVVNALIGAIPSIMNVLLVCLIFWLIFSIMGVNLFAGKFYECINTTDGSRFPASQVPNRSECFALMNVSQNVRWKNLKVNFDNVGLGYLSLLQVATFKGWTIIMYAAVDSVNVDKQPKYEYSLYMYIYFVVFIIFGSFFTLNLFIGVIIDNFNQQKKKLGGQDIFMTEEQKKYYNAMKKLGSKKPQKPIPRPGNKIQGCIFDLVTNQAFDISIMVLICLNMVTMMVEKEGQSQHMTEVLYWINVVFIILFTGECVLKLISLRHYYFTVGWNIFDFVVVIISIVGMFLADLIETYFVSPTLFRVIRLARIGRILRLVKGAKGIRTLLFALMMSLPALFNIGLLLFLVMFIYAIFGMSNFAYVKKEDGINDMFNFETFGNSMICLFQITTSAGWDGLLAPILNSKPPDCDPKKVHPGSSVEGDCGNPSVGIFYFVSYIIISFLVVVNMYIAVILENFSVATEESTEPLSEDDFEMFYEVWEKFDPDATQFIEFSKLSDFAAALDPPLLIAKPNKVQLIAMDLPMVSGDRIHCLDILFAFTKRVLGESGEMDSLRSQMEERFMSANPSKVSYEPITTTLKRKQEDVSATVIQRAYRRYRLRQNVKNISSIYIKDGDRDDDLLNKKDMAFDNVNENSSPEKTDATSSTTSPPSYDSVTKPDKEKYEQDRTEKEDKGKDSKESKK

[1] = IonWorks Quattro, clamped to −110 mV, depolarized to −10 mV, 5 min after compound, n=2, read-out: IWQ Use Nav1.5
[2] = clamped to −110 mV, depolarized to −10 mV, 5 min after compound, n=2

`CC[C@@H]1NC(=O)[C@@H]2CSSC[C@@H](C(=O)N[C@@H](CCCCN)C(=O)N[C@@H](Cc3ccc(O)cc3)C(=O)N[C@H](C(=O)N[C@@H](Cc3ccccc3)C(N)=O)C(C)C)NC(=O)[C@H](Cc3c[nH]c4ccccc34)NC(=O)[C@H](CCCCN)NC(=O)[C@H](Cc3c[nH]cn3)NC(=O)[C@H]([C@@H](C)O)NC(=O)[C@H](CCCNC(=N)N)NC(=O)[C@H](CO)NC(=O)[C@H](CSSC[C@H](NC(=O)[C@H](CCCCN)NC(=O)[C@H](CCCNC(=N)N)NC(=O)[C@H](CCSC)NC(=O)[C@H](Cc3ccccc3)NC(=O)CNC(=O)[C@H](CC(C)C)NC(=O)[C@H](CC)NC(=O)[C@@H](N)CC(=O)O)C(=O)N[C@@H]([C@@H](C)CC)C(=O)N3CCC[C@H]3C(=O)N[C@@H](CC(=O)O)C(=O)N[C@@H](CC(N)=O)C(=O)N[C@@H](CC(=O)O)C(=O)N[C@@H](CCCCN)C(=O)N2)NC(=O)[C@H](C(C)C)NC(=O)[C@H](CC(C)C)NC(=O)[C@H](CC(N)=O)NC(=O)[C@@H]2CCCN2C(=O)[C@H](CCCNC(=N)N)NC1=O` [SEQ ID NO: 125, [2-Abu-2,17]GpTx-1] (H-D[Abu]LGFMRKCIPDNDKC[Abu]RPNLVCSRTHKWCKYVF-NH2; disulfide 9-23, 16-30) showed an IC50 (hNav1.5; IonWorks Quattro, use-dependent block, hNav1.5, read-out: IWQ Use Nav1.5) of 9.51 µM, an IC50 (hNav1.3; use-dependent block, hNav1.3) of 240 nM and an IC50 (hNav1.7; use-dependent block, hNav1.7) of 300 nM.
For `CC[C@H](C)[C@@H]1NC(=O)[C@@H]2CSSC[C@@H]3NC(=O)[C@H](C(C)C)NC(=O)[C@H](CC(C)C)NC(=O)[C@H](CC(N)=O)NC(=O)[C@@H]4CCCN4C(=O)[C@H](CCCNC(=N)N)NC(=O)[C@H](CSSC[C@H](NC(=O)[C@@H](N)CC(=O)O)C(=O)N[C@@H](CC(C)C)C(=O)NCC(=O)N[C@@H](Cc4ccc5ccccc5c4)C(=O)N[C@@H](CCSC)C(=O)N[C@@H](CCCNC(=N)N)C(=O)N[C@@H](CCCCN)C(=O)N2)NC(=O)[C@H](CSSC[C@@H](C(=O)N[C@@H](CCCCN)C(=O)N[C@@H](Cc2ccc(O)cc2)C(=O)N[C@H](C(=O)N[C@@H](Cc2ccccc2)C(N)=O)C(C)C)NC(=O)[C@H](Cc2c[nH]c4ccccc24)NC(=O)[C@H](CCCCN)NC(=O)[C@H](Cc2c[nH]cn2)NC(=O)[C@H]([C@@H](C)O)NC(=O)[C@H](CCCNC(=N)N)NC(=O)[C@H](CO)NC3=O)NC(=O)[C@H](CCCCN)NC(=O)[C@H](CC(=O)O)NC(=O)[C@H](CC(N)=O)NC(=O)[C@H](CC(=O)O)NC(=O)[C@@H]2CCCN2C1=O` [SEQ ID NO: 128], the IC50 (hNav1.5; [1]) was 6.11 µM, the IC50 (hNav1.3; [2]) was 50 nM and the IC50 (hNav1.7; [2]) was 110 nM.
In the case of `CC[C@H](C)[C@@H]1NC(=O)[C@@H]2CSSC[C@@H]3NC(=O)[C@H](C(C)C)NC(=O)[C@H](CC(C)C)NC(=O)[C@H](CC(N)=O)NC(=O)[C@@H]4CCCN4C(=O)[C@H](CCCNC(=N)N)NC(=O)[C@H](CSSC[C@H](NC(=O)[C@@H](N)CC(=O)O)C(=O)N[C@@H](CC(C)C)C(=O)NCC(=O)N[C@@H](Cc4ccccc4)C(=O)N[C@@H](CCSC)C(=O)N[C@@H](CCCNC(=N)N)C(=O)N[C@@H](CCCCN)C(=O)N2)NC(=O)[C@H](CSSC[C@@H](C(=O)N[C@@H](CCCCN)C(=O)N[C@@H](Cc2ccc(O)cc2)C(=O)N[C@H](C(=O)N[C@@H](Cc2ccccc2)C(N)=O)C(C)C)NC(=O)[C@H](Cc2ccc4ccccc4c2)NC(=O)[C@H](CCCCN)NC(=O)[C@H](Cc2c[nH]cn2)NC(=O)[C@H]([C@@H](C)O)NC(=O)[C@H](CCCNC(=N)N)NC(=O)[C@H](CO)NC3=O)NC(=O)[C@H](CCCCN)NC(=O)[C@H](CC(=O)O)NC(=O)[C@H](CC(N)=O)NC(=O)[C@H](CC(=O)O)NC(=O)[C@@H]2CCCN2C1=O` [SEQ ID NO: 129, [2-Nal29]GpTx-1] (H-DCLGFMRKCIPDNDKCCRPNLVCSRTHK[2Nal]CKYVF-NH2; disulfide 2-17, 9-23, 16-30), the IC50 (hNav1.5; Table 24, IonWorks Quattro, use, […], read-out: IWQ Use Nav1.5) is reported as 11.7 µM, the IC50 (hNav1.3; Table 24, use, […]) is reported as 730 nM and the IC50 (hNav1.7; Table 24, use, […]) is reported as 580 nM.
`CC[C@H](C)[C@@H]1NC(=O)[C@@H]2CSSC[C@@H]3NC(=O)[C@H](C(C)C)NC(=O)[C@H](CC(C)C)NC(=O)[C@H](CC(N)=O)NC(=O)[C@@H]4CCCN4C(=O)[C@H](CCCNC(=N)N)NC(=O)[C@H](CSSC[C@H](NC(=O)[C@@H](N)CC(=O)O)C(=O)N[C@@H](CC(C)C)C(=O)NCC(=O)N[C@@H](Cc4ccccc4)C(=O)N[C@@H](CCSC)C(=O)N[C@@H](CCCNC(=N)N)C(=O)N[C@@H](CCCCN)C(=O)N2)NC(=O)[C@H](CSSC[C@@H](C(=O)N[C@@H](CCCCN)C(=O)N[C@@H](Cc2ccc(O)cc2)C(=O)N[C@H](C(=O)N[C@@H](Cc2ccccc2)C(N)=O)C(C)C)NC(=O)[C@H](Cc2c[nH]c4ccccc24)NC(=O)[C@H](CCCCN)NC(=O)[C@H](Cc2cnc[nH]2)NC(=O)[C@H](CCC(=O)O)NC(=O)[C@H](CCCNC(=N)N)NC(=O)[C@H](CO)NC3=O)NC(=O)[C@H](CCCCN)NC(=O)[C@H](CC(=O)O)NC(=O)[C@H](CC(N)=O)NC(=O)[C@H](CC(=O)O)NC(=O)[C@@H]2CCCN2C1=O` [SEQ ID NO: 152, [Glu26]GpTx-1] (H-DCLGFMRKCIPDNDKCCRPNLVCSREHKWCKYVF-NH2; disulfide 2-17, 9-23, 16-30) was tested, and the IC50 (hNav1.5; IWQ Use Nav1.5 (μM)) was 17.2 µM, the IC50 (hNav1.3; Table 22, use, […]) was 710 nM and the IC50 (hNav1.7; Table 22, use, […]) was 680 nM.
In the case of `CC[C@H](C)[C@@H]1NC(=O)[C@@H]2CSSC[C@@H]3NC(=O)[C@H](C(C)C)NC(=O)[C@H](CC(C)C)NC(=O)[C@H](CC(N)=O)NC(=O)[C@@H]4CCCN4C(=O)[C@H](CCCNC(=N)N)NC(=O)[C@H](CSSC[C@H](NC(=O)[C@@H](N)CC(=O)O)C(=O)N[C@@H](CC(C)C)C(=O)NCC(=O)N[C@@H](Cc4ccccc4)C(=O)N[C@@H](CCCCN)C(=O)N[C@@H](CCCNC(=N)N)C(=O)N[C@@H](CCCCN)C(=O)N2)NC(=O)[C@H](CSSC[C@@H](C(=O)N[C@@H](CCCCN)C(=O)N[C@@H](Cc2ccc(O)cc2)C(=O)N[C@H](C(=O)N[C@@H](Cc2ccccc2)C(N)=O)C(C)C)NC(=O)[C@H](Cc2c[nH]c4ccccc24)NC(=O)[C@H](CCCCN)NC(=O)[C@H](Cc2cnc[nH]2)NC(=O)[C@H]([C@@H](C)O)NC(=O)[C@H](CCCNC(=N)N)NC(=O)[C@H](CO)NC3=O)NC(=O)[C@H](CCCCN)NC(=O)[C@H](CC(=O)O)NC(=O)[C@H](CC(N)=O)NC(=O)[C@H](CC(=O)O)NC(=O)[C@@H]2CCCN2C1=O` [SEQ ID NO: 154] (H-DCLGFKRKCIPDNDKCCRPNLVCSRTHKWCKYVF-NH2; disulfide 2-17, 9-23, 16-30), the IC50 (hNav1.5; [1]) is reported as 13.9 µM, the IC50 (hNav1.3; [2]) is reported as 8490 nM and the IC50 (hNav1.7; [2]) is reported as 14500 nM.
`CC[C@H](C)[C@@H]1NC(=O)[C@@H]2CSSC[C@@H]3NC(=O)[C@H](C(C)C)NC(=O)[C@H](CC(C)C)NC(=O)[C@H](CC(N)=O)NC(=O)[C@@H]4CCCN4C(=O)[C@H](CCCNC(=N)N)NC(=O)[C@H](CSSC[C@H](NC(=O)[C@@H](N)CC(=O)O)C(=O)N[C@@H](CC(C)C)C(=O)NCC(=O)N[C@@H](Cc4ccccc4)C(=O)N[C@@H](CCSC)C(=O)N[C@@H](CCCNC(=N)N)C(=O)N[C@@H](CCCCN)C(=O)N2)NC(=O)[C@H](CSSC[C@@H](C(=O)N[C@@H](CCCCN)C(=O)N[C@@H](Cc2ccc(O)cc2)C(=O)N[C@H](C(=O)N[C@@H](Cc2ccccc2)C(N)=O)C(C)C)NC(=O)[C@H](Cc2c[nH]c4ccccc24)NC(=O)[C@H](CCCCN)NC(=O)[C@H](Cc2cnc[nH]2)NC(=O)[C@H]([C@@H](C)O)NC(=O)[C@H](CCCNC(=N)N)NC(=O)[C@H](CO)NC3=O)NC(=O)[C@H](CCCCN)NC(=O)[C@H](CC(=O)O)NC(=O)[C@H](CC(N)=O)NC(=O)[C@H](CC(=O)O)NC(=O)[C@H](Cc2c[nH]c3ccccc23)NC1=O` [SEQ ID NO: 171, [Trp11]GpTx-1] (H-DCLGFMRKCIWDNDKCCRPNLVCSRTHKWCKYVF-NH2; disulfide 2-17, 9-23, 16-30) showed an IC50 (hNav1.5; IonWorks Quattro, Use, read-out: IWQ Use Nav1.5) of 9.5 µM, an IC50 (hNav1.3; Use) of 40 nM and an IC50 (hNav1.7; Use) of 70 nM.
Molecule `CC[C@H](C)[C@@H]1NC(=O)[C@@H]2CSSC[C@@H]3NC(=O)[C@H](C(C)C)NC(=O)[C@H](CC(C)C)NC(=O)[C@H](CC(N)=O)NC(=O)[C@@H]4CCCN4C(=O)[C@H](CCCNC(=N)N)NC(=O)[C@H](CSSC[C@H](NC(=O)[C@@H]4CCC(=O)N4)C(=O)N[C@@H](CC(C)C)C(=O)NCC(=O)N[C@@H](Cc4ccccc4)C(=O)N[C@@H](CCSC)C(=O)N[C@@H](CCCNC(=N)N)C(=O)N[C@@H](CCCCN)C(=O)N2)NC(=O)[C@H](CSSC[C@@H](C(=O)N[C@@H](CCCCN)C(=O)N[C@@H](Cc2ccc(O)cc2)C(=O)N[C@H](C(=O)N[C@@H](Cc2ccccc2)C(N)=O)C(C)C)NC(=O)[C@H](Cc2c[nH]c4ccccc24)NC(=O)[C@H](CCCCN)NC(=O)[C@H](Cc2c[nH]cn2)NC(=O)[C@H]([C@@H](C)O)NC(=O)[C@H](CCCNC(=N)N)NC(=O)[C@H](CO)NC3=O)NC(=O)[C@H](CCCCN)NC(=O)[C@H](CC(=O)O)NC(=O)[C@H](CC(N)=O)NC(=O)[C@H](CC(=O)O)NC(=O)[C@@H]2CCCN2C1=O` [SEQ ID NO: 188] ([pGlu]CLGFMRKCIPDNDKCCRPNLVCSRTHKWCKYVF-NH2; disulfide 2-17, 9-23, 16-30) has an IC50 (hNav1.5; [1]) of 10.7 µM, an IC50 (hNav1.3; [2]) of 110 nM and an IC50 (hNav1.7; [2]) of 170 nM.
